Data as given in patent US10647699B2, “Substituted 2-oxyimidazolylcarboxamides as pesticides” (Bayer CropScience Aktiengesellschaft, priority 2016, dated 2020).

What was measured:
Myzus persicae [1] = assay: Myzus persicae spray test (MYZUPE), Chinese cabbage leaf discs; assay type: in vivo; details: application rate 500 g/ha
Experimental: Myzus persicae—Spray Test
To produce a suitable preparation of active compound, 1 part by weight of active compound is dissolved using the specified parts by weight of solvent and made up with water containing an emulsifier concentration of 1000 ppm until the desired concentration is attained. To produce further test concentrations, the formulation is diluted with emulsifier-containing water.
Discs of Chinese cabbage leaves (Brassica pekinensis) infested by all stages of the green peach aphid (Myzus persicae) are sprayed with an active compound formulation of the desired concentration.
After 5 or 6 days, the efficacy in % is determined. 100% means that all the aphids have been killed; 0% means that no aphids have been killed.
Myzus persicae—Spray Test (MYZUPE)
Discs of Chinese cabbage leaves (Brassica pekinensis) infested by all stages of the green peach aphid (Myzus persicae) are sprayed with an active compound preparation of the desired concentration.
After the desired period of time, the efficacy in % is determined. 100% means that all the aphids have been killed; 0% means that no aphids have been killed.

Myzus persicae [2] = assay: Myzus persicae oral test (MYZUPE O); assay type: in vivo; details: after 5 days
Experimental: Solvent: 100 parts by weight of acetone
To produce a suitable preparation of active compound, 1 part by weight of active compound is dissolved using the specified parts by weight of solvent and made up with water until the desired concentration is attained.
50 μl of the active compound preparation are transferred into microtitre plates and made up to a final volume of 200 μl with 150 μl of IPL41 insect medium (33%+15% sugar). Subsequently, the plates are sealed with parafilm, which a mixed population of green peach aphids (Myzus persicae) within a second microtitre plate is able to puncture and imbibe the solution through it.
After 5 days, the efficacy in % is determined. 100% means that all the aphids have been killed; 0% means that no aphids have been killed.
Myzus persicae—Oral Test (MYZUPE O)
After 5 or 6 days (dat), the efficacy in % is determined. 100% means that all the aphids have been killed; 0% means that no aphids have been killed.

[3] = log P by HPLC on reversed-phase columns (OECD Guideline 117), neutral range; assay type: physicochemical

LogP-neutral ([3]; pH 7.8)	Structure (SMILES)	efficacy (Myzus persicae [1]; after 5 days)	efficacy (Myzus persicae [2]; application rate 20 ppm)	LogP-neutral ([3]; HPLC, neutral range pH 7.8)	efficacy (Myzus persicae [1]; after 6 days)	efficacy (Myzus persicae [2]; application rate 4 ppm)
–	CN(C(=O)c1cnc(Oc2cccnc2Cl)n1C)c1cccnc1 [Example II-66]	100%	100%	1.45	–	–
2.39	CN(C(=O)c1cnc(Oc2cccc(C(F)(F)F)c2F)n1C)c1cccnc1 [Example II-78]	100%	100%	–	–	–
–	CN(C(=O)c1cnc(Oc2ccc(Cl)c(Cl)c2)n1C)c1cccnc1 [Example II-28]	100%	90%	2.57	–	–
–	CCc1cccc(Oc2ncc(C(=O)N(C)c3cccnc3)n2C)c1 [Example II-75]	90%	100%	2.35	–	–
1.25	CC(=O)Nc1cccc(Oc2ncc(C(=O)N(C)c3cccnc3)n2C)c1 [Example II-74]	90%	100%	–	–	–
1.83	CN(C(=O)c1cnc(OC2CCCC2)n1C)c1cccnc1 [Example II-21]	–	90%	–	90%	–
2.55	CN(C(=O)c1cnc(Oc2cc(F)cc(C(F)(F)F)c2)n1C)c1cccnc1 [Example II-86]	100%	100%	–	–	–
1.75	CCC(C)Oc1ncc(C(=O)N(C)c2cccnc2)n1C (stereo not drawn) [Example II-20]	–	100%	–	100%	–
2.26	COc1cc(Cl)cc(Oc2ncc(C(=O)N(C)c3cccnc3)n2C)c1 [Example II-88]	90%	100%	–	–	–
1.4	CN(C(=O)c1cnc(Oc2cnccc2Cl)n1C)c1cccnc1 [Example II-65]	100%	100%	–	–	–
–	CN(C(=O)c1cnc(Oc2cccnc2)n1C)c1cccnc1 [Example II-55]	100%	100%	1.08	–	–
–	CN(C(=O)c1cnc(Oc2ccccc2Cl)n1C)c1cccnc1 [Example II-13]	–	100%	1.94	100%	–
–	CN(C(=O)c1cnc(Oc2ccc(Cl)nc2)n1C)c1cccnc1 [Example II-68]	90%	100%	1.45	–	–
2.42	CN(C(=O)c1cnc(Oc2ccc(F)c(C(F)(F)F)c2)n1C)c1cccnc1 [Example II-83]	90%	–	–	–	100%
–	Cc1cccc(Oc2ncc(C(=O)N(C)c3cccnc3)n2C)c1 [Example II-79]	90%	90%	1.97	–	–
1.68	Cc1cc(Cl)ncc1Oc1ncc(C(=O)N(C)c2cccnc2)n1C [Example II-59]	90%	100%	–	–	–
1.31	CN(C(=O)c1cnc(Oc2cccc(S(C)(=O)=O)c2)n1C)c1cccnc1 [Example II-80]	100%	100%	–	–	–
–	CN(C(=O)c1cnc(Oc2cccc(C#N)c2)n1C)c1cccnc1 [Example II-72]	90%	100%	1.52	–	–
1.62	CN(C(=O)c1cnc(Oc2cncc(Br)c2)n1C)c1cccnc1 [Example II-67]	100%	100%	–	–	–
1.26	Cc1ccc(Oc2ncc(C(=O)N(C)c3cccnc3)n2C)cn1 [Example II-44]	90%	100%	–	–	–
–	Cc1ccncc1Oc1ncc(C(=O)N(C)c2cccnc2)n1C [Example II-53]	90%	100%	1.24	–	–

Structure (SMILES)	LogP-neutral ([3]; pH 7.8)	efficacy (Myzus persicae [1]; after 5 days)	efficacy (Myzus persicae [2]; application rate 20 ppm)	LogP-neutral ([3]; HPLC, neutral range pH 7.8)	efficacy (Myzus persicae [1]; after 6 days)	efficacy (Myzus persicae [2]; application rate 4 ppm)
CCN(C(=O)c1cnc(Oc2ccc(Oc3ccc(Cl)nc3)nc2)n1C)c1cccnc1 [Example II-51]	2.26	100%	100%	–	–	–
CCN(C(=O)c1cnc(Oc2cncc(C(F)(F)F)c2)n1C)c1cccnc1 [Example II-92]	2.04	100%	100%	–	–	–
